This test has as its target hTREM2 (Homo sapiens, UniProt Q9NZC2). The test is described as follows: Phospho-Syk AlphaLisa assay in HEK293T-hTREM2 cells expressing human TREM2 and DAP12 (Example A2). It counts as cell-based. The note with it: HEK293 cells, Syk phosphorylation, Examples 276-283. Set-up: expressed in transfected cells; host or cells: HEK293T-hTREM2 cells. How it is done:
Measurement of TREM2 agonist potency was done using a HEK cell line expressing human TREM2 and DAP12 (HEK293T-hTREM2 cells). Binding of small molecules to, and activation of, TREM2 increases the phosphorylation of Syk. The resultant levels of Syk phosphorylation were measured using a commercial AlphaLisa reagent kit. To perform the assay, HEK-hTREM2 cells were plated at 14,000 cells per well in a 384 well plate, in 25 μL of complete growth media and incubated at 37° C., 5% CO2 for 20-24 hours. Prior to the assay, test compounds were diluted in the 384 well plates in assay buffer and allowed to equilibrate for 30 minutes. Growth media was removed from cell plates by inversion on blotting paper, and 25 μL of test compounds in assay buffer was added to cells. Cells were incubated for 45 minutes at room temperature. After 45 minutes, assay buffer was removed and 10 μL of lysis buffer was added. Plates were shaken for 20 minutes at 350 RPM at room temperature. After complete lysis, AlphaLisa reagents were added to the lysate, and fluorescence intensity was measured using a Perkin Elmer Envision plate reader. Intensities were used to generate a standard curve, and % activation was calculated. Curve fitting was performed using Prism v9 software, log(agonist) vs response—variable slope (four parameters), and EC50s were calculated from the curve fit.
The results presented in Table 11 have been generated with the in vitro assay described above for Examples 276-283. This assay may be used to test any of the compounds described herein to assess and characterize a compound's ability to act as an agonist of TREM2.
In general terms: Bead proximity is the source of the signal in Alpha formats.

pEC50: −log10 of the molar value.

Sequence of hTREM2 (Q9NZC2 19-230): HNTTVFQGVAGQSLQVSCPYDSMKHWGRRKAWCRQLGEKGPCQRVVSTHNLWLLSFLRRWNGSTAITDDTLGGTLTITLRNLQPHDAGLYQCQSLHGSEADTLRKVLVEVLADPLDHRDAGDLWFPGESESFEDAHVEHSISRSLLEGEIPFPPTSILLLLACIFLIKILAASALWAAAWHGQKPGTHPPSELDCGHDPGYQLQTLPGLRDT
Sequence of hTREM2 (O43914 22-113 partner): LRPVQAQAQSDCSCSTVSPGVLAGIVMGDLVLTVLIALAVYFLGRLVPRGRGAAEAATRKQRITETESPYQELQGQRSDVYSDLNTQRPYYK

For orientation: pEC50 means the EC50 on a negative log10 scale, so that one unit is a factor of ten. Low values mean a high EC50, high ones a low EC50. `Cc1cc(C2CN(c3cc4nc(C)n(C)c(=O)c4c(C45CC(C(F)(F)F)(C4)C5)n3)CCO2)ccn1` (stereo not drawn) [Example 282, 2,3-dimethyl-7-(2-(2-methylpyridin-4-yl)morpholino)-5-(3-(trifluoromethyl)bicyclo[1.1.1]pentan-1-yl)pyrido[4,3-d]pyrimidin-4(3H)-one] gave a pEC50 of more than 7.30.

For `Cc1cc([C@H]2C[C@@H](c3cc4nc(C)n(C)c(=O)c4c(-c4ccc(F)cc4F)n3)CCO2)ccn1` (racemic) [Example 278, 5-(2,4-difluorophenyl)-2,3-dimethyl-7-(2-(2-methylpyridin-4-yl)tetrahydro-2H-pyran-4-yl)pyrido[4,3-d]pyrimidin-4(3H)-one], the pEC50 was 6.30 to 7.30.

In the case of `Cc1cc([C@H]2C[C@@H](c3cc4nc(C)n(C)c(=O)c4c(-c4ccc(C(F)(F)F)nc4)n3)CCO2)ccn1` [Example 277, 2,3-dimethyl-7-(2-(2-methylpyridin-4-yl)tetrahydro-2H-pyran-4-yl)-5-(6-(trifluoromethyl)pyridin-3-yl)pyrido[4,3-d]pyrimidin-4(3H)-one], the pEC50 is 6.30 to 7.30.

In turn, `Cc1cc([C@H]2C[C@@H](c3cc4nc(C)n(C)c(=O)c4c(C45CC(C(F)(F)F)(C4)C5)n3)CCO2)ccn1` (racemic) [Example 281, 2,3-dimethyl-7-(2-(2-methylpyridin-4-yl)tetrahydro-2H-pyran-4-yl)-5-(3-(trifluoromethyl)bicyclo[1.1.1]pentan-1-yl)pyrido[4,3-d]pyrimidin-4(3H)-one] had a pEC50 of more than 7.30.

Turning to `Cc1cc(C2CN(c3cc4nc(C)n(C)c(=O)c4c(-c4ccc(C(F)(F)F)nc4)n3)CCO2)ccn1` (stereo not drawn) [Example 280, 2,3-dimethyl-7-(2-(2-methylpyridin-4-yl)morpholino)-5-(6-(trifluoromethyl)pyridin-3-yl)pyrido[4,3-d]pyrimidin-4(3H)-one], the negative logarithm of the EC50 (pEC50) was more than 7.30.

As for `COc1cc(C2CN(c3cc4nc(C)n(C)c(=O)c4c(C45CC(C(F)(F)F)(C4)C5)n3)CCO2)ccn1` (stereo not drawn) [Example 283, 7-(2-(2-methoxypyridin-4-yl)morpholino)-2,3-dimethyl-5-(3-(trifluoromethyl)bicyclo[1.1.1]pentan-1-yl)pyrido[4,3-d]pyrimidin-4(3H)-one], the pEC50 was 6.30 to 7.30.

The values are drawn from patent US20250388574A1, “HETEROCYCLIC COMPOUNDS AS TRIGGERING RECEPTOR EXPRESSED ON MYELOID CELLS 2 AGONISTS AND METHODS OF USE” (AMGEN INC., priority 2020, published 2025).
